Assay results taken from US9474777B2, “Plant extract and the process for treating hepatic fibrosis and liver cancer” (Development Center for Biotechnology, priority 2013, dated 2016).

Tests used:
[1] = tested on: diethylnitrosamine (DEN)-induced liver fibrosis and liver cancer; assay: DEN-induced liver fibrosis and liver cancer model; type: in vivo, Wistar rats
Text: Specifically, five-to-six weeks old Wistar rats were obtained from the animal center at the National Taiwan University Medical School. The rats were given 100 ppm DEN drinking water, and they were weighed weekly at feeding times. […] The feeding of DEN was continued for 9 weeks, which is sufficient to induce the occurrence of liver cirrhosis and liver cancer. Liver cancers were removed from the rats for cancer recurrence study.

[2] = tested on: recurrence of liver cirrhosis and liver cancers after removal of DEN-induced tumor; assay: Recurrence model after removal of DEN-induced tumor; type: in vivo, Wistar rats; conditions: pirfenidone 200 mg/kg/day
Protocol: Specifically, five-to-six weeks old Wistar rats were obtained from the animal center at the National Taiwan University Medical School. The rats were given 100 ppm DEN drinking water, and they were weighed weekly at feeding times. […] The feeding of DEN was continued for 9 weeks, which is sufficient to induce the occurrence of liver cirrhosis and liver cancer. Liver cancers were removed from the rats for cancer recurrence study. The test samples (GP-T) were tested at two different concentrations and administered to the rats for four weeks (from the ninth to the thirteenth week). Pirfenidone was used as a positive control. In the tests, each group included 6-8 rats. The tests were conducted using the rat model and different concentrations of the GP test samples in the food to assess their effects on liver fibrosis and liver cancer recurrence. Male five-to-six weeks old Wistar rats were obtained from the animal center at the National Taiwan University Medical School. The rats were fed drinking water containing 100 ppm carcinogen, diethylnitrosamine (DEN). During the feeding period, the rats were weighed weekly. The concentrations of DEN were increased according to the body weight increases. After continuous feeding for 9 weeks, DEN was sufficient to induce liver cirrhosis and liver cancer in rats. The liver cancers were removed by surgery after the 9 week period. Then, the rats were treated with two different doses of the test drugs (GP-T) for four weeks (from the ninth week to the thirteenth week). Some rats were given pirfenidone as positive control. In this experiments, each group has n=6-8 rats. This experiment uses a rat model, coupled with feeding the rats with different doses of the test drugs, to evaluate the impacts of the test drugs on the recurrence of liver cirrhosis and liver cancers.

Structure (SMILES)	Survival Rate ([1]; sorafenib 30 mg/kg, 6 weeks, DEN rats) [%]	number of activated astrocytes (α-SMA staining) ([1]; sorafenib group (S), 30 mg/kg)	prophylactic effect on the recurrence of carcinogenesis after tumor removal [2]	hydroxyproline content in liver ([2]; FIG. 14D)	carcinogenesis presented by GST-p(+) density ([2]; four weeks after tumor ablation)
CNC(=O)c1cc(Oc2ccc(NC(=O)Nc3ccc(Cl)c(C(F)(F)F)c3)cc2)ccn1 [Sorafenib]	100	significantly reduced number of activated astrocytes	–	–	–
Cc1ccc(=O)n(-c2ccccc2)c1 [pirfenidone]	–	–	no prophylactic effect	decreased significantly	decreased
